Patent publication US20260000075A1, “HERBICIDAL MALONIC ACID MONOAMIDES AND MALONAMIDE ESTERS” (BASF SE, priority 2022, published 2026)

Key:
SETFA = assay: greenhouse pre-emergence herbicidal test; type: in vivo, Setaria faberi; settings: pre-emergence method, application rate 0.500 kg/ha, scale from 0 to 100
Excerpt: (§1) The culture containers used were plastic flowerpots containing loamy sand with approximately 3.0% of humus as the substrate. The seeds of the test plants were sown separately for each species.
(§2) For the pre-emergence treatment, the active ingredients, which had been suspended or emulsified in water, were applied directly after sowing by means of finely distributing nozzles. The containers were irrigated gently to promote germination and growth and subsequently covered with transparent plastic hoods until the test plants had rooted.
(§3) This cover caused uniform germination of the test plants, unless this had been impaired by the active ingredients.
(§4) Depending on the species, the test plants were kept at 10-25° C. or 20-35° C., respectively.
(§5) The test period extended over 2 to 4 weeks. During this time, the test plants were tended, and their response to the individual treatments was evaluated.
(§6) Evaluation was carried out using a scale from 0 to 100. 100 means no emergence of the test plants, or complete destruction of at least the aerial moieties, and 0 means no damage, or normal course of growth. A good herbicidal activity is given at values of 70 to <90 and a very good herbicidal activity is given at values of 90 to 100.
(§7) The test plants used in the greenhouse experiments were of the following species: […]

ECHCG = assay: greenhouse pre-emergence herbicidal test; type: in vivo, Echinocloa crus-galli; settings: pre-emergence method, scale from 0 to 100
Excerpt: as §1, §2, §3, §4, §5, §6, §7

ALOMY = assay: greenhouse post-emergence herbicidal test; type: in vivo, Alopercurus myosuroides; settings: post-emergence method, scale from 0 to 100
Excerpt: as §1
(§8) For the post-emergence treatment, the test plants were first grown to a height of 3 to 15 cm, depending on the plant habit, and only then treated with the active ingredients which had been suspended or emulsified in water. For this purpose, the test plants were either sown directly and grown in the same containers, or they were first grown separately as seedlings and transplanted into the test containers a few days prior to treatment.
as §4, §5, §6, §7

APESV = assay: greenhouse pre-emergence herbicidal test; type: in vivo, Apera spica-venti; settings: pre-emergence method, scale from 0 to 100
Excerpt: as §1, §2, §3, §4, §5, §6, §7

AMARE [1] = assay: greenhouse pre-emergence herbicidal test; type: in vivo, Amaranthus retroflexus; settings: pre-emergence method, scale from 0 to 100
Excerpt: as §1, §2, §3, §4, §5, §6, §7

SETVI [2] = assay: greenhouse pre-emergence herbicidal test; type: in vivo, Setaria viridis; settings: pre-emergence method, application rate 0.500 kg/ha, scale from 0 to 100
Excerpt: as §1, §2, §3, §4, §5, §6, §7

DIGSA = assay: greenhouse pre-emergence herbicidal test; type: in vivo, Digitaria sanguinalis; settings: pre-emergence method, application rate 1.000 kg/ha, scale from 0 to 100
Excerpt: as §1, §2, §3, §4, §5, §6, §7

AMARE [3] = assay: greenhouse post-emergence herbicidal test; type: in vivo, Amaranthus retroflexus; settings: post-emergence method, application rate 1.000 kg/ha, scale from 0 to 100
Excerpt: as §1, §8, §4, §5, §6, §7

LOLMU = assay: greenhouse pre-emergence herbicidal test; type: in vivo, Lolium multiflorum; settings: pre-emergence method, application rate 1.000 kg/ha, scale from 0 to 100
Excerpt: as §1, §2, §3, §4, §5, §6, §7

AVEFA = assay: greenhouse post-emergence herbicidal test; type: in vivo, Avena fatua; settings: post-emergence method, application rate 1.000 kg/ha, scale from 0 to 100
Excerpt: as §1, §8, §4, §5, §6, §7

SETVI [4] = assay: greenhouse post-emergence herbicidal test; type: in vivo, Setaria viridis; settings: post-emergence method, application rate 0.250 kg/ha, scale from 0 to 100
Excerpt: as §1, §8, §4, §5, §6, §7

Question: Which “herbicidal activity against SETFA” value (SETFA) does the source give for “5-[(3,5-difluorophenyl)carbamoyl]-hydrofuran-5-carboxylic acid [compound 1.7]” here?
Answer: The value was “good (A good herbicidal activity is given at values of 70 to <90)”.

Question: What about the “herbicidal activity against ECHCG” value (ECHCG; application rate 0.500 kg/ha) of the same molecule?
Answer: The value was “good (A good herbicidal activity is given at values of 70 to <90)”.

Question: What about the “herbicidal activity against ALOMY” value (ALOMY; application rate 0.500 kg/ha) of the same molecule?
Answer: The value was “very good (a very good herbicidal activity is given at values of 90 to 100)”.

Question: And the “herbicidal activity against APESV” value (APESV; application rate 0.500 kg/ha)?
Answer: The value was “very good (a very good herbicidal activity is given at values of 90 to 100)”.

Question: With CC1=CCOC1(C(=O)O)C(=O)Nc1cc(Cl)cc(Cl)c1 (stereo not shown) [compound 1.6] as the molecule, how does the “herbicidal activity against AMARE” value (AMARE [1]; application rate 0.125 kg/ha) read?
Answer: Its value is “good (A good herbicidal activity is given at values of 70 to <90)”.

Question: And the “herbicidal activity against APESV” value (APESV; application rate 0.125 kg/ha)?
Answer: Its value is “good (A good herbicidal activity is given at values of 70 to <90)”.

Question: Which “herbicidal activity against SETVI” value (SETVI [2]) does the source give for CSCCOC(=O)C1(C(=O)Nc2cc(F)cc(F)c2)C=CCO1 (stereo not shown) [compound 1.9] here?
Answer: Its value is “very good (a very good herbicidal activity is given at values of 90 to 100)”.

Question: Which “herbicidal activity against ALOMY” value (ALOMY; application rate 0.250 kg/ha) does the source give for CCOC(=O)C1(C(=O)Nc2cc(F)cc(F)c2)CC=CO1 (stereo not shown) [compound 1.25, ethyl 2-[(3,5-difluorophenyl)carbamoyl]-3H-furan-2-carboxylate] here?
Answer: Its value is “very good (a very good herbicidal activity is given at values of 90 to 100)”.

Question: With O=C(O)C1(C(=O)Nc2cc(F)cc(F)c2)CC=CO1 (stereo not shown) [compound 1.26, 2-[(3,5-difluorophenyl)carbamoyl]-3H-furan-2-carboxylate] as the molecule, how does the “herbicidal activity against DIGSA” value (DIGSA) read?
Answer: Its value is “very good (a very good herbicidal activity is given at values of 90 to 100)”.

Question: And the “herbicidal activity against AMARE” value (AMARE [3])?
Answer: Its value is “good (A good herbicidal activity is given at values of 70 to <90)”.

Question: What about the “herbicidal activity against LOLMU” value (LOLMU) of the same molecule?
Answer: The value was “very good (a very good herbicidal activity is given at values of 90 to 100)”.

Question: What about the “herbicidal activity against AVEFA” value (AVEFA) of the same molecule?
Answer: Its value is “very good (a very good herbicidal activity is given at values of 90 to 100)”.

Question: With CCOC(=O)C1(C(=O)Nc2cc(Cl)cc(Cl)c2)CCO1 (stereo not shown) [compound 11.1, ethyl 2-[(3,5-dichlorophenyl)carbamoyl]oxetane-2-carboxylate] as the molecule, how does the “herbicidal activity against ECHCG” value (ECHCG; application rate 1.000 kg/ha) read?
Answer: Its value is “good (A good herbicidal activity is given at values of 70 to <90)”.

Question: What about the “herbicidal activity against APESV” value (APESV; application rate 1.000 kg/ha) of the same molecule?
Answer: Its value is “good (A good herbicidal activity is given at values of 70 to <90)”.

Question: How did the “herbicidal activity against SETVI” value (SETVI [4]) turn out when O=C(O)C1(C(=O)Nc2cc(F)cc(F)c2)CCO1 (stereo not shown) [compound 11.5] was run?
Answer: Its value is “very good (a very good herbicidal activity is given at values of 90 to 100)”.

Question: CS(=O)(=O)CCOC(=O)C1(C(=O)Nc2cc(F)cc(F)c2)CCO1 (stereo not shown) [compound 11.8] was tested. Which “herbicidal activity against AMARE” value (AMARE [1]; application rate 0.250 kg/ha) did it give?
Answer: Its value is “good (A good herbicidal activity is given at values of 70 to <90)”.
